Holding throughout (format): functional, cell-based
In one experiment the test system is 786-0. Put plainly: The compound was tested in vitro for cytotoxic activity against 786-O cell line (human perirenal carcinoma).
In the next experiment the test system is HT-29. Put plainly: The compound was tested in vitro for cytotoxic activity against HT-29 cell line (human colon adenocarcinoma).
In a further experiment the test system is L1210. As to the kind of experiment: The compound was tested in vitro for cytotoxic activity against L1210 cell line (mouse leukemia).
The next experiment concerns B16. Put plainly: The compound was tested in vitro for cytotoxic activity against B-16 cell line (mouse melanoma).
The subject of a further experiment is PC-3. As to the kind of experiment: The compound was tested in vitro for cytotoxic activity against PC-3 cell line (human prostate carcinoma).
Another experiment relates to MOLT-4. Put plainly: The compound was tested in vitro for cytotoxic activity against Molt-4 cell line (human T-cell leukemia).
Another experiment relates to BT-549. Put plainly: The compound was tested in vitro for cytotoxic activity against BT-549 cell line (human breast carcinoma).
The subject of another experiment is MCF7. As to the kind of experiment: The compound was tested in vitro for cytotoxic activity against MCF-7 cell line (human breast carcinoma).
Experiment [1] is described as follows: The compound was tested in vitro for cytotoxic activity against UCLA-P3 cell line (human lung adenocarcinoma). To be noted: UCLA P-3.
For the next experiment, the system named is OVCAR-3. As to the kind of experiment: The compound was tested in vitro for cytotoxic activity against OVCAR-3 cell line (human ovarian carcinoma).
Experiment [2] in a line: The compound was tested in vitro for cytotoxic activity against M24-MET cell line (human metastatic melanoma). As to conditions: M24met.
The test system of a further experiment is H322. As to the kind of experiment: The compound was tested in vitro for cytotoxic activity against H 322 cell line (human lung adenocarcinoma). To be noted: NCI-H322.
The subject of another experiment is HL-60. As to the kind of experiment: The compound was tested in vitro for cytotoxic activity against HL-60 cell line (human promyelomic leukemia).
A further experiment has as its system SK-MEL-28. As to the kind of experiment: The compound was tested in vitro for cytotoxic activity against SK-MEL 28 cell line (human melanoma).
The next experiment concerns SiHa. Put plainly: The compound was tested in vitro for cytotoxic activity against SIHA cell line (human cervix carcinoma).

One may read the IC50 as the concentration needed to halve the response being measured. Low readings indicate inhibition by little substance, high ones a need for much substance.

In the case of `CC(C)[C@H]1C(=O)OC[C@@H](NC(=O)c2ccc3ccccc3n2)C(=O)N2CCCC[C@H]2C(=O)NCC(=O)N(C)CC(=O)N(C)[C@@H](C(C)C)C(=O)OC[C@@H](NC(=O)c2ccc3ccccc3n2)C(=O)N2CCCC[C@H]2C(=O)NCC(=O)N(C)CC(=O)N1C`, the IC50 in the experiment with 786-0 came out at 10 pM; in the experiment with HT-29, 10 pM; in the experiment on L1210, 200 pM; in the experiment with B16, 60 pM; in the experiment on PC-3 it was 1 pM; in the experiment with MOLT-4 it was 3000 pM. Besides, the IC50 in the experiment on BT-549 is 10 pM; in the experiment with MCF7, 40 pM; in [1], 2 pM; with OVCAR-3 it was 1000 pM; in experiment [2] it was 40 pM; in the experiment with H322, 10000 pM. The IC50 with HL-60, in the experiment on SK-MEL-28 and in the experiment with SiHa was 1 pM throughout.

As to `CC(C)[C@H]1C(=O)OC[C@@H](NC(=O)c2nc3ccccc3cc2O)C(=O)N2CCCC[C@H]2C(=O)NCC(=O)N(C)CC(=O)N(C)[C@@H](C(C)C)C(=O)OC[C@@H](NC(=O)c2nc3ccccc3cc2O)C(=O)N2CCCC[C@H]2C(=O)NCC(=O)N(C)CC(=O)N1C`, the concentration for half-maximal inhibition (IC50) stood at 8000 pM with 786-0; 1000 pM in the experiment with HT-29; 20 pM with L1210; 400 pM in the experiment on B16; 200 pM in the experiment with PC-3; 700 pM with MOLT-4. Besides, the IC50 was determined as 1000 pM with BT-549; 300000 pM in the experiment on MCF7; 10000 pM in experiment [1]; 4000 pM in the experiment with OVCAR-3; 400 pM in experiment [2]; 20000 pM with H322. Besides, the IC50 amounted to 80000 pM with HL-60, 1000 pM in the experiment with SK-MEL-28 and 300 pM with SiHa.

The record behind these values is ChEMBL document CHEMBL1129898, “An exceptionally potent analog of sandramycin” (Bioorg Med Chem Lett, 1997).
